Experimental data as given in article PMC7181960 (ChemMedChem, 2019).
Read-outs that look alike come from different tables or passages of the source.

Assays:
[1] = tested on: PC3; assay: PrestoBlue Cell Viability assay, 72 h; assay type: cell-based, human; settings: read-out: IC50 PC3, 72 h incubation
[2] = tested on: PC3 cells; assay: Cell death assay; assay type: cell-based, human; settings: PC3, IC50 concentration, 72 h, flow cytometry
[3] = tested on: Vascular Endothelial Growth Factor (VEGF); assay: Immunofluorescent analysis of VEGF level in PC3 cells; assay type: cell-based, human; settings: PC3, IC20 concentration, 24 h incubation
[4] = tested on: Caki-1; settings: read-out: IC50 Caki-1; 72 h incubation; values previously reported, ref [10]; cited from earlier work
[5] = tested on: IMR-90; settings: read-out: IC50 IMR-90; 72 h incubation; values previously reported, ref [10]; cited from earlier work
[6] = tested on: PC3 cells; settings: previously described, ref [16]; cited from earlier work
[7] = tested on: Caki-1; assay: PrestoBlue Cell Viability assay, 72 h; settings: read-out: IC50 Caki-1, 72 h incubation

Compound | IC50 [1] | apoptosis, % of the cell population [2] | reduction of VEGF [3] | IC50 [4] | IC50 [5] | reduction of migration [6] | IC50 [7]
CC(=O)OC[C@H]1O[C@@H]([S-])[C@H](OC(C)=O)[C@@H](OC(C)=O)[C@@H]1OC(C)=O.CCP(CC)CC.[Au+] [Auranofin] | 3.6 ± 0.005 µM | 73% | 50% | 2.8 ± 0.6 µM | 3.7 ± 0.4 µM |  | 
N.N.[Cl][Pt][Cl] [Cisplatin] | 6.7 ± 2.8 µM |  |  | 23.9 ± 2.4 µM | 3.9 ± 0.5 µM |  | 
COc1ccc(C[C]2([Ti+2][C]3(Cc4ccc(OC)cc4)C=CC=C3)C=CC=C2)cc1.[Cl-].[Cl-] [Titanocene-Y] | 58.1 ± 11.2 µM |  |  |  |  | 19% | 29.4 ± 4.2 µM
